Literature values as cited in patent publication US20100215725A1, “PHARMACEUTICAL COMPOSITION CONTAINING IDEBENONE FOR THE TREATMENT OF LIVER DISORDERS” (priority 2009, published 2010).

Tested on: rat liver microsomes
Details: pro-oxidative system NADPH/ADP/Fe3+

Row | concentration offering complete protection against lipid peroxidation in microsomes [µM] | SMILES
1 | 100 | COC1=C(OC)C(=O)C(C/C=C(\C)CC/C=C(\C)CC/C=C(\C)CC/C=C(\C)CC/C=C(\C)CC/C=C(\C)CC/C=C(\C)CC/C=C(\C)CC/C=C(\C)CCC=C(C)C)=C(C)C1=O [coenzyme Q-10]
2 | 20 | COC1=C(OC)C(=O)C(CCCCCCCCCCO)=C(C)C1=O [Idebenone, 2,3-dimethoxy-5-methyl-6-(10-hydroxydecyl)-1,4-benzoquinone]
